Laboratory results reported in US20200289514A1, “Novel Pyrazolo Pyrimidine Derivatives” (Novartis AG, priority 2015, published 2020).

Key:
[1] = tested on: Human IL2 promoter; test: Human IL2 promoter reporter gene assay (RGA) in Jurkat cells; type: cell-based; conditions: Jurkat clone K22 290_H23, anti-CD28 mAb + PMA, 5.5 h
Experimental: Human IL2 Promoter Reporter Gene Assay (RGA) in Jurkat Cells
The transfected Jurkat clone K22 290_H23 was propagated in RPMI 1640 supplemented with 10% heat inactivated fetal calf serum, 50 μM 2-mercaptoethanol and 1 mg/ml Geneticin. The cell concentration should not exceed 1×10e6/ml during culturing. The cells should not exceed passage 30. Prior to the assay the cells were washed and prepared to the concentration of 2×10e6 cells/ml.
Compound dilutions were made as 2×-concentrated solutions then diluted ½ by addition to cells. Two hundred and fifty μl of compound dilution and 250 μl of cells were mixed together in wells of a 96-deep well plate. Cells/compounds premix were incubated 30 min at 37° C. and 5% CO2 directly in the deep well plate.
After pre-incubation of cells with compounds, cells were stimulated with anti-CD28 mAb (clone 15E8) at 3 μg/ml+PMA at 1 μg/ml. Both co-stimulants were diluted in culture medium at a 10×-concentrated solution. 10 μl of co-stimulants were pipetted into the white 96-well plates and 100 μl of cell/compound mix was immediately added in duplicates. The cells were stimulated for 5.5 h at 37° C. and 5% CO2.
After cell stimulation, 50 μl of BriteLitePlus reagent (Perkin Elmer) was added to each well and the bioluminescence was measured with a Wallac EnVision reader (Perkin Elmer).

[2] = target: T1, C-domain of MALT1 (amino acids 329-824) (Homo sapiens, UniProt Q9UDY8); test: MALT1 Biochemical Assay - Version 1 (fluorescence lifetime)
T1 sequence (Q9UDY8 329-824): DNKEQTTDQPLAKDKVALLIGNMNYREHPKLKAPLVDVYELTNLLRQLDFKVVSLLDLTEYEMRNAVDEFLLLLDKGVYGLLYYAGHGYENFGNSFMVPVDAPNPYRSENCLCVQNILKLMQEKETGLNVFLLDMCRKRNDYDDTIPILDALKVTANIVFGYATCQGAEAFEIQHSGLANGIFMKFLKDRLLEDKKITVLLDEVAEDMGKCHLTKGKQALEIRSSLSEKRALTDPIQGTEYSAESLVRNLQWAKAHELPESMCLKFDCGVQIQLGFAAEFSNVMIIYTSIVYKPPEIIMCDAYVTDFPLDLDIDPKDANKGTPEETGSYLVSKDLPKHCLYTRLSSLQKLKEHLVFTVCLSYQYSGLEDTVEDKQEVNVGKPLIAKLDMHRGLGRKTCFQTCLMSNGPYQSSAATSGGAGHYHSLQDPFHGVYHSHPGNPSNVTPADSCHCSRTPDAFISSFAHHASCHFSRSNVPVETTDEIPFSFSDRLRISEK
Experimental: The readout parameter is the increase of fluorescence lifetime over time, proportional to enzyme activity.
The assay employs a short peptide substrate labeled with the single fluorophore PT14 as a fluorescence lifetime probe sensitive to the cleavage state of the substrate (PT14: 6-(9-oxo-9H-acridin-10-yl)-hexanoate, AssayMetrics, UK). […] Test compounds were dissolved in 100% (v/v) DMSO or a mixture containing 90% (v/v) DMSO and 10% (v/v) H2O at a stock concentration of 100 mM. Serial dilutions of test compounds were prepared using either 100% (v/v) DMSO or a mixture containing 90% (v/v) DMSO and 10% (v/v) H2O.
where y is the %-inhibition at the inhibitor concentration, x. A1 is the lowest inhibition value, and A2 the maximum inhibition value. The exponent, p, is the Hill coefficient.

IC50 [1] | IC50 [2] | Compound
87 nM | 20 nM | CO[C@@H](C)c1c(NC(=O)Nc2cc(C(C)O)nc(C(F)(F)F)c2)cnc2cc(F)nn12 (stereo partly drawn) [Example 17, 1-(2-fluoro-7-((S)-1-methoxyethyl)pyrazolo [1,5-a]pyrimidin-6-yl)-3-(2-(1-hydroxyethyl)-6-(trifluoromethyl)pyridin-4-yl)urea]
135 nM | 50 nM | CO[C@@H](C)c1c(NC(=O)Nc2cncc(C(F)F)c2)cnc2cc(F)nn12 [Example 29, (S)-1-(5-(difluoro-methyl)pyridin-3-yl)-3-(2-fluoro-7-(1-methoxyethyl)-pyrazolo[1,5-a]pyrimidin-6-yl)urea]
21 nM | 4 nM | CO[C@@H](C)[C@H](OC)c1c(NC(=O)Nc2cnc(-n3nccn3)c(C#N)c2)cnc2cc(Cl)nn12 [Example 25, 1-(2-chloro-7-((1R, 2S)-1,2-dimethoxypropyl)pyrazolo[1,5-a]pyrimidin-6-yl)-3-(5-cyano-6-(2H-1,2,3-triazol-2-yl)pyridin-3-yl)urea]
73 nM | 31 nM | CO[C@@H](C)c1c(NC(=O)Nc2cncc(C#N)c2)cnc2cc(F)nn12 [Example 12, (S)-1-(5-cyanopyridin-3-yl)-3-(2-fluoro-7-(1-methoxyethyl)pyrazolo[1,5-a]pyrimidin-6-yl)urea]
42 nM | 16 nM | CO[C@@H](C)c1c(NC(=O)Nc2ccnc(C#N)c2)cnc2cc(F)nn12 [Example 23, (S)-1-(2-cyanopyridin-4-yl)-3-(2-fluoro-7-(1-methoxyethyl)pyrazolo [1,5-a]pyrimidin-6-yl)urea]
86 nM | 24 nM | C[C@H](N)c1c(NC(=O)Nc2cnc(-n3nccn3)c(Cl)c2)cnc2cc(Cl)nn12 [Example 38, (S)-1-(7-(1-aminoethyl)-2-chloropyrazolo[1,5-a]pyrimidin-6-yl)-3-(5-chloro-6-(2H-1,2,3-triazol-2-yl)pyridin-3-yl)urea]
27 nM | 7 nM | COCCO[C@@H](C)c1c(NC(=O)Nc2cnc(-n3nccn3)c(C(F)(F)F)c2)cnc2cc(Cl)nn12 [Example 7, (S)-1-(6-(2H-1,2,3-triazol-2-yl)-5-(trifluoromethyl)pyridin-3-yl)-3-(2-chloro-7-(1-(2-methoxyethoxy)ethyl)pyrazolo[1,5-a]pyrimidin-6-yl)urea]
20 nM | 7 nM | CO[C@@H](C)c1c(NC(=O)Nc2cncc(C(F)(F)F)c2)cnc2cc(F)nn12 [Example 30, (S)-1-(2-fluoro-7-(1-methoxyethyl)pyrazolo [1,5-a]pyrimidin-6-yl)-3-(5-(trifluoro-methyl)pyridin-3-yl)urea]
44 nM | 11 nM | CO[C@@H](C)c1c(NC(=O)Nc2cnc(C(=O)N3CCCC3)c(Cl)c2)cnc2cc(Cl)nn12 [Example 33, (S)-1-(5-chloro-6-(pyrrolidine-1-carbonyl)pyridin-3-yl)-3-(2-chloro-7-(1-methoxyethyl)pyrazolo [1,5-a]pyrimidin-6-yl)urea]
100 nM | 11 nM | C[C@H](O)c1c(NC(=O)Nc2ccnc(C(F)F)c2)cnc2cc(F)nn12 [Example 40, (S)-1-(2-(difluoromethyl)pyridin-4-yl)-3-(2-fluoro-7-(1-hydroxyethyl)pvrazolo[1,5-a]pyrimidin-6-yl)urea]
729 nM | 96 nM | CO[C@@H](C)c1c(NC(=O)Nc2cc[n+]([O-])c(C(F)F)c2)cnc2cc(F)nn12 [Example 42, (S)-2-(difluoromethyl)-4-(3-(2-fluoro-7-(1-methoxyethyl)pyrazolo[1,5-a]pyrimidin-6-yl)ureido)pyridine 1-oxide]
35 nM | 3 nM | COc1ncc(NC(=O)Nc2cnc3cc(Cl)nn3c2[C@@H](OC)[C@H](C)OC)cc1C#N [Example 36, 1-(2-chloro-7-((1R, 2S)-1,2-dimethoxypropyl)pyrazolo[1,5-a]pyrimidin-6-yl)-3-(5-cyano-6-methoxypyridin-3-yl)urea]
45 nM | 13 nM | CO[C@@H](C)c1c(NC(=O)Nc2cc(Cl)nc(C(=O)N(C)C)c2)cnc2cc(Cl)nn12 [Example 28, (S)-6-chloro-4-(3-(2-chloro-7-(1-methoxyethyl)pyrazolo [1,5-a]pyrimidin-6-yl)ureido)-N, N-dimethylpicolinamide]
113 nM | 22 nM | COc1ncc(NC(=O)Nc2cnc3cc(Cl)nn3c2[C@H](C)O[C@H]2CCN(C(C)=O)C2)cc1C#N [Example 26, 1-(7-((S)-1-(((S)-1-acetylpyrrolidin-3-yl)oxy)ethyl)-2-chloropyrazolo[1,5-a]pyrimidin-6-yl)-3-(5-cyano-6-methoxypyridin-3-yl)urea]
62 nM | 14 nM | COc1ncc(NC(=O)Nc2cnc3cc(C)nn3c2[C@H](C)OC)cc1C#N [Example 24, (S)-1-(5-cyano-6-methoxypyridin-3-yl)-3-(7-(1-methoxyethyl)-2-methylpyrazolo[1,5-a]pyrimidin-6-yl)urea]
604 nM | 72 nM | Cc1cc2ncc(NC(=O)Nc3cncc(C#N)c3)c([C@H](C)O)n2n1 [Example 39, (S)-1-(5-cyanopyridin-3-yl)-3-(7-(1-hydroxyethyl)-2-methylpyrazolo [1,5-a]pyrimidin-6-yl)urea]
17 nM | 10 nM | CO[C@@H](C)c1c(NC(=O)Nc2cncc(Cl)c2)cnc2cc(Cl)nn12 [Example 35, (S)-1-(2-chloro-7-(1-methoxyethyl)pyrazolo [1,5-a]pyrimidin-6-yl)-3-(5-chloropyridin-3-yl)urea]
101 nM | 9 nM | CO[C@@H](C)c1c(NC(=O)Nc2ccnc(C(O)C(F)(F)F)c2)cnc2cc(Cl)nn12 (stereo partly drawn) [Example 20, 1-(2-chloro-7-((S)-1-methoxyethyl)pyrazolo [1,5-a]pyrimidin-6-yl)-3-(2-(2,2,2-trifluoro-1-hydroxyethyl)pyridin-4-yl)urea]
19 nM | 4 nM | CO[C@@H](C)c1c(NC(=O)Nc2cnc(-n3nccn3)c(C#N)c2)cnc2cc(F)nn12 [Example 18, (S)-1-(5-cyano-6-(2H-1,2,3-triazol-2-yl)pyridin-3-yl)-3-(2-fluoro-7-(1-methoxyethyl)pyrazolo [1,5-a]pyrimidin-6-yl)urea]
25 nM | 7 nM | COc1ncc(NC(=O)Nc2cnc3cc(C)nn3c2[C@@H](OC)C(C)C)cc1C#N [Example 22, (S)-1-(5-cyano-6-methoxypyridin-3-yl)-3-(7-(1-methoxy-2-methylpropyl)-2-methylpyrazolo[1,5-a]pyrimidin-6-yl)urea]
35 nM | 8 nM | CO[C@@H](C)c1c(NC(=O)Nc2cnc(-n3nccn3)c(C#N)c2)cnc2cc(C)nn12 [Example 27, (S)-1-(5-cyano-6-(2H-1,2,3-triazol-2-yl)pyridin-3-yl)-3-(7-(1-methoxyethyl)-2-methylpyrazolo[1,5-a]pyrimidin-6-yl)urea]
38 nM | 2 nM | CO[C@H](c1c(NC(=O)Nc2cnc(-n3nccn3)c(C(F)(F)F)c2)cnc2cc(Cl)nn12)C(C)C [Example 8, (S)-1-(6-(2H-1,2,3-triazol-2-yl)-5-(trifluoromethyl)pyridin-3-yl)-3-(2-chloro-7-(1-methoxy-2-methylpropyl)pyrazolo [1,5-a]pyrimidin-6-yl)urea]
41 nM | 4 nM | COc1ncc(NC(=O)Nc2cnc3cc(F)nn3c2[C@H](C)OC)cc1C#N [Example 6, (S)-1-(5-cyano-6-methoxypyridin-3-yl)-3-(2-fluoro-7-(1-methoxyethyl)pyrazolo[1,5-a]pyrimidin-6-yl)urea]
22 nM |  | CO[C@@H](C)[C@H](OC)c1c(NC(=O)Nc2cnc(-n3nccn3)c(Cl)c2)cnc2cc(Cl)nn12 [Example 10, 1-(5-chloro-6-(2H-1,2,3-triazol-2-yl)pyridin-3-yl)-3-(2-chloro-7-((1R, 2S)-1,2-dimethoxypropyl)pyrazolo[1,5-a]pyrimidin-6-yl) urea]

Compound | IC50 [1] | IC50 [2]
CC(C)c1c(NC(=O)Nc2cnc(-n3nccn3)c(Cl)c2)cnc2cc(Cl)nn12 [Example 4, 1-(5-chloro-6-(2H-1,2,3-triazol-2-yl)pyridin-3-yl)-3-(2-chloro-7-isopropylpyrazolo[1,5-a]pyrimidin-6-yl)urea] | 103 nM | 
CO[C@@H](C)c1c(NC(=O)Nc2ccnc(C(F)(F)F)c2)cnc2cc(Cl)nn12 [Example 3, (S)-1-(2-chloro-7-(1-methoxyethyl)pyrazolo[1,5-a]pyrimidin-6-yl)-3-(2-(trifluoromethyl)pyridin-4-yl)urea] | 36 nM | 
